Earlier results on 5 compounds are cited in patent publication US20230346889A9, “TREATMENT OF ACUTE HEART FAILURE” (AnaCardio R&D AB, priority 2019, published 2023).

Non-standard residues stand in square brackets, D forms with d. Residues, ends and D or L forms follow the SMILES beside them. dTrp(2-Me) = Cc1[nH]c2ccccc2c1C[C@@H](N)C(=O)O; d2Nal = N[C@H](Cc1ccc2ccccc2c1)C(=O)O

Series [1] relates to patients with heart failure. The settings on record: cited from earlier work; for association with mortality: observational ADHERE Registry.
Series [2] concerns dogs with acute myocardial infarction. The settings on record: US2004014671A1; cited from earlier work.

For `C[C@@H]1CC(=O)NN=C1c1ccc(NN=C(C#N)C#N)cc1` [Levosimendan], the “hypotension and arrhythmias vs. placebo” value in series [1] (REVIVE I and II) is “increased hypotension and arrhythmias vs. placebo”. Further, in series [1] (human, in vivo), the “effect on CO and blood pressure” value is reported as “increases CO but also causes hypotension”.

With `C[C@H](NC(=O)[C@@H](Cc1ccc2ccccc2c1)NC(=O)[C@@H](C)N)C(=O)N[C@@H](Cc1c[nH]c2ccccc12)C(=O)N[C@H](Cc1ccccc1)C(=O)N[C@@H](CCCCN)C(N)=O` [Pralmorelin] (H-[dA][d2Nal]AW[dF]K-NH2), in series [2], the “improvement of CO” value is “improved”. In the case of `CC(CCc1ccc(O)cc1)NCCc1ccc(O)c(O)c1` (stereo not shown) [dobutamine], the association with mortality result in series [1] is recorded as “independently associated with increased mortality”. For `Cc1[nH]c2ccccc2c1C[C@@H](NC(=O)[C@@H](N)Cc1cnc[nH]1)C(=O)N[C@@H](C)C(=O)N[C@@H](Cc1c[nH]c2ccccc12)C(=O)N[C@H](Cc1ccccc1)C(=O)N[C@@H](CCCCN)C(N)=O` [hexarelin] (H-H[dTrp(2-Me)]AW[dF]K-NH2), in series [2], the “improvement of CO” value is recorded as “not”. On to `Cc1[nH]c(=O)c(C#N)cc1-c1ccncc1` [milrinone], for which, in series [1], the association with mortality result is reported as “independently associated with increased mortality”. Further, the “adverse outcomes vs. placebo” value in series [1] (randomized OPTIME CHF) is “caused significantly more hypotension and atrial arrhythmias and non-significantly more deaths”.
